EP2110134A1, “Cocoa extract compounds and methods for making and using the same” (MARS, INCORPORATED, priority 1996, dated 1997)

Key:
Helicobacter pylori = experiment: Disk diffusion bioassay; format: cell-based; details: control disk, 80ug, read-out: H. pylori Inhibition
Description: (§1) A study was conducted to evaluate the antimicrobial activity of procyanidin oligomers against Helicobacter pylori and Staphylococcus aureus. Pentamer enriched material was prepared as described in Example 13, Method A and analyzed as described in Example 14, Method C, where 89% was pentamer, and 11% was higher oligomers (n is 6 to 12). Purified pentamer (96.3%) was prepared as described in Example 14, Method D.
(§2) Helicobacter pylori and Staphylococcus aureus were obtained from the American Type Culture Collection (ATCC). For H. pylori, the vial was rehydrated with 0.5 mL Trypticase Soy broth and the suspension transferred to a slant of fresh TSA containing 5% defibrinated sheep blood. The slant was incubated at 37°C for 3 to 5 days under microaerophilic conditions in anaerobic jars (5 to 10% carbon dioxide; CampyPakPlus, BBL). When good growth was established in the pool of broth at the bottom of the slant, the broth was used to inoculate additional slants of TSA with sheep blood. Because viability decreased with continued subculturing, the broth harvested from the slants was pooled and stored at -80°C. Cultures for assay were used directly from the frozen vials. […]
(§3) A cell suspension of each culture was prepared (H. pylori, 10^8 to 10^9 cfu/mL; S. aureus 10^6 to 10^7 cfu/mL) and 0.5 mL spread onto TSA plates with 5% sheep blood. […] Zones of inhibition were measured following outgrowth. […]

[1] = Rancimat oxidative stability test; details: 100°C, 20 cc/min air
Description: The procedures described in Examples 1, 2 and 3 were used to prepare cocoa extracts which were manipulated further to produce two fractions from gel permeation chromatography. These two fractions are actually combined fractions A through C, and D and E (See Figure 1) whose antioxidant properties were compared against the synthetic antioxidants BHA and BHT.
Peanut Oil was pressed from unroasted peanuts after the skins were removed. 50µL of methanol solubilized antioxidant was added to each sample to aid in dispersion of the antioxidant. A control sample was prepared with 50µL of methanol containing no antioxidant.
The samples were evaluated in duplicate, for oxidative stability using the Rancimat stability test at 100°C and 20 cc/min of air. Experimental parameters were chosen to match those used with the Active Oxygen Method (AOM) or Swift Stability Test (Van Oosten et al., 1981). Results are reported in Table 8 as hours required to reach a peroxide level of 100 meq. Table 7: Concentrations of Antioxidants

Staphylococcus aureus = experiment: Disk diffusion bioassay; format: cell-based; details: read-out: S. aureus Inhibition
Description: as §1, §2, §3

[2] = test system: Human umbilical vein endothelial cells (HUVEC); experiment: NO production by HUVEC, Griess reaction; format: cell-based
Description: Human umbilical vein endothelial cells (HUVEC) were obtained from Clonetics and cultures were carried out according to the manufacturer's specifications. HUVEC cells were seeded at 5,000 cells/cm^2 in 12-well plates (Falcon). After the third passage under the same conditions, they were allowed to reach confluence. The supernatant was renewed with fresh medium containing defined concentrations of bradykinin (25,50 and 100nM) or cocoa procyanidin fractions A-E (100µg/mL) as described in example 31. The culture was continued for 24 hr. and the cell free supernatants were collected and stored frozen prior to assessment of NO content as described below. In selected experiments, the NO synthase (NOS) antagonist, Nω-nitro-L-arginine methyl ester (L-NAME, 10µM) was added to assess the involvement of NOS in the observed NO production.
HUVEC NO production was estimated by measuring nitrite concentration in the culture supernatant by the Griess reaction. Griess reagent was 1% sulfanilamide, 0.1% N-(1-naphthyl)-ethylenediamine dihydrochloride. Briefly, 50µL aliquots were removed from the various supernatants in quadruplicate and incubated with 150µL of the Griess reagent. The absorbency at 540 nm was determined in a multiscan (Labsystems Multiskans MCC/340) apparatus. Sodium nitrite was used at defined concentrations to establish standard curves. […]

Cc1ncc([N+](=O)[O-])n1CCO [Metronidazole standard, metronidazole]
zone of inhibition at 80 µg/disc (Helicobacter pylori): 11 mm

COc1ccc(O)c(C(C)(C)C)c1 [BHA, Butylated Hydroxyanisole]
hours required to reach a peroxide level of 100 meq ([1]; 20 ppm nominal (actual levels in Table 7), control 10.5 ± 0.7): 13.5 ± 2.1 h | hours required to reach a peroxide level of 100 meq ([1]; 100 ppm nominal (actual levels in Table 7)): 14.0 ± 1.4 h

CN[C@H](CC(C)C)C(=O)N[C@H]1C(=O)N[C@@H](CC(N)=O)C(=O)N[C@H]2C(=O)N[C@H]3C(=O)N[C@H](C(=O)N[C@H](C(=O)O)c4cc(O)cc(O)c4-c4cc3ccc4O)[C@H](O)c3ccc(c(Cl)c3)Oc3cc2cc(c3O[C@@H]2O[C@H](CO)[C@@H](O)[C@H](O)[C@H]2O[C@H]2C[C@](C)(N)[C@H](O)[C@H](C)O2)Oc2ccc(cc2Cl)[C@H]1O [Vancomycin standard, vancomycin]
zone of inhibition at 30 µg/disc (Staphylococcus aureus): 15 mm

bradykinin (RPPGFSPFR; Bradykinin; UniProt P01042 381-389, looked up)
NO production by HUVEC ([2]; 25, 50 and 100nM, 24 hr): dose dependent release of NO | NO release in the presence of L-NAME ([2]; L-NAME 10µM): completely inhibited
